Measured values: patent US20260242353A1, “HETEROARYL DERIVATIVES AS DDRs INHIBITORS” (CHIESI FARMACEUTICI S.P.A., priority 2022, published 2026)

Experiments:
DDR2 = molecular target: T1, DDR2 (Homo sapiens, UniProt Q16832); experiment: LanthaScreen Europium Kinase Binding assay, DDR2; conditions: 5 nM DDR2, 10 nM Kinase Tracer 178, 1 h at rt; Ki from IC50 by Cheng-Prusoff; read-out: Ki DDR2
T1 construct: purchased Life Technologies
T1 sequence (Q16832 22-855): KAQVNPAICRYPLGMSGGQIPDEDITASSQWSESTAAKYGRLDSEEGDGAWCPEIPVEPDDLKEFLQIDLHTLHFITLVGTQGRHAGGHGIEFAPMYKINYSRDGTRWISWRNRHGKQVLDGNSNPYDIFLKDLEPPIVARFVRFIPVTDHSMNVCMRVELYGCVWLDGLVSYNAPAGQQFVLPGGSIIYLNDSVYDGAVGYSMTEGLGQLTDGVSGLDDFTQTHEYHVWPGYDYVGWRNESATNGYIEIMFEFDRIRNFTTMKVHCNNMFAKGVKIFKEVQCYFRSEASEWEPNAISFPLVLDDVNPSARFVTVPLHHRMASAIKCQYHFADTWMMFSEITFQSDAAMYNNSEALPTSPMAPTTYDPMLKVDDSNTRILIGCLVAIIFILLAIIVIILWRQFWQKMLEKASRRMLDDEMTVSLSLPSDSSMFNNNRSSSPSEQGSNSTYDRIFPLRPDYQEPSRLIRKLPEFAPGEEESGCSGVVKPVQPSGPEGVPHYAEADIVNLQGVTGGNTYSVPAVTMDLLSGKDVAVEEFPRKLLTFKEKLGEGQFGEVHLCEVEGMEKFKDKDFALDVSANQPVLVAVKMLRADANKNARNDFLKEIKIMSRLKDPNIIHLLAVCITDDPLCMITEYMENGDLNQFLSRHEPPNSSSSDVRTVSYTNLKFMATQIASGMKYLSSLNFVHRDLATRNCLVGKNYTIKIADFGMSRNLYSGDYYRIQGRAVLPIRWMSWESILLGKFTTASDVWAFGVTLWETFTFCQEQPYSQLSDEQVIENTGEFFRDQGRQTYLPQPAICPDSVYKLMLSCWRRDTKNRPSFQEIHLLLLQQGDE
Protocol: (§1) DDR1 and DDR2 binding assays were performed using Life Technologies LanthaScreen™ Europium Kinase Binding assay. The compounds were incubated with 5 nM DDR1 (Carna Biosciences) or 5 nM DDR2 (Life Technologies) for 1 h at rt in white 384-well OptiPlate (PerkinElmer), containing 20 nM or 10 nM Kinase Tracer 178 respectively and 2 nM Europium labelled anti-GST antibody (Life Technologies) in assay buffer (50 mM HEPES pH 7.5, 10 mM MgCI2, 1 mM EGTA and 0.01% BRIJ35). The ratio of fluorescence emission 665 nm/615 nm after excitation at 340 nm was obtained using the Tecan Spark 20M plate reader. IC50 values were determined in GraphPad Prism 7.0 software, using 4 parameter model: log(inhibitor) vs. response. IC50 values were converted in Ki using the Cheng-Prusoff equation (Ki=IC50/(1+[Tracer]/Kd).

DDR1 = molecular target: T2, DDR1 (Homo sapiens, UniProt Q08345); experiment: LanthaScreen Europium Kinase Binding assay, DDR1; conditions: 5 nM DDR1, 20 nM Kinase Tracer 178, 1 h at rt; Ki from IC50 by Cheng-Prusoff; read-out: Ki DDR1
T2 construct: purchased Carna Biosciences
T2 sequence (Q08345 19-913): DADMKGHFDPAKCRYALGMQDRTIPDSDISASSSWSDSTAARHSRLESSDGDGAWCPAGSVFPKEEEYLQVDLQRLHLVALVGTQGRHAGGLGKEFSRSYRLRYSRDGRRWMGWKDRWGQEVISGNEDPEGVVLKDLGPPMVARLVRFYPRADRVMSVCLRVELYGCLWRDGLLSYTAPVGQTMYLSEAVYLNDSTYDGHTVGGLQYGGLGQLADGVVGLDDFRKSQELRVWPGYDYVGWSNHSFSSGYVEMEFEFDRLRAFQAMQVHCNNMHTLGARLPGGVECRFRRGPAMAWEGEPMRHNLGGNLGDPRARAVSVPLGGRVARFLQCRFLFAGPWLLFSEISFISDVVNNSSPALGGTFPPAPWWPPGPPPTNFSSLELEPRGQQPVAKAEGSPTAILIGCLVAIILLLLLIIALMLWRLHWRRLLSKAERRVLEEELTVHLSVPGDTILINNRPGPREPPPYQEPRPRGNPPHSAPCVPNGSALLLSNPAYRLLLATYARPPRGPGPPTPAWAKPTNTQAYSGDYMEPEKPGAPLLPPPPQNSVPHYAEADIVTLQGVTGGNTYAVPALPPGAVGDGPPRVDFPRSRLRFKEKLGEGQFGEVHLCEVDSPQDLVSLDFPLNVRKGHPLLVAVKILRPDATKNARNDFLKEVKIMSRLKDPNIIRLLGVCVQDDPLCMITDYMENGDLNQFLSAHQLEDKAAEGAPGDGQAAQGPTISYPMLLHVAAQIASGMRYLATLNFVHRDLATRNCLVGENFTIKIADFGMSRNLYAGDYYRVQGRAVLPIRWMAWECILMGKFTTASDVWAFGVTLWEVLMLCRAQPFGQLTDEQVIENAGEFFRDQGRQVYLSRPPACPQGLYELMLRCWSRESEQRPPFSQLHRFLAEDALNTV
Protocol: as §1

| Ki (DDR2) | Ki (DDR1) | Structure (SMILES) |
| --- | --- | --- |
| < 5 nM | < 5 nM | Cc1ccc(C(=O)Nc2cncc(C(F)(F)F)c2)cc1[C@@H]1CCN(c2cnc3cnccn23)C1 [Example 37, (S)-3-(1-(imidazo[1,2-a]pyrazin-3-yl)pyrrolidin-3-yl)-4-methyl-N-(5-(trifluoromethyl)pyridin-3-yl)benzamide] |
| < 5 nM | < 5 nM | COc1ccncc1N1CC[C@@H](c2cc(C(=O)Nc3cncc(C(F)(F)F)c3)ccc2C)C1 [Example 76, (S)-3-(1-(4-methoxypyridin-3-yl)pyrrolidin-3-yl)-4-methyl-N-(5-(trifluoromethyl)pyridin-3-yl)benzamide] |
| 5 to 25 nM | < 5 nM | CC(=O)Nc1cc(N2CC[C@@H](c3cc(C(=O)Nc4cncc(C(F)(F)F)c4)ccc3C)C2)ccn1 [Example 85, (S)-3-(1-(2-acetamidopyridin-4-yl)pyrrolidin-3-yl)-4-methyl-N-(5-(trifluoromethyl)pyridin-3-yl)benzamide] |
| 5 to 25 nM | < 5 nM | Cc1ccc(C(=O)Nc2cncc(C(F)(F)F)c2)cc1[C@H]1CCN(c2cncc(C(N)=O)c2)C1 [Example 2, (R)-5-(3-(2-methyl-5-((5-(trifluoromethyl)pyridin-3-yl)carbamoyl)phenyl)pyrrolidin-1-yl)nicotinamide] |
| < 5 nM | < 5 nM | O=C(Nc1cncc(C(F)(F)F)c1)c1ccc(C(F)F)c(C2CCN(c3cncnc3)C2)c1 (single isomer, unassigned) [Example 121] |
| 5 to 25 nM | < 5 nM | COCCOc1cncc(N2CC[C@@H](c3cc(C(=O)Nc4cncc(C(F)(F)F)c4)ccc3C)C2)c1 [Example 79, (S)-3-(1-(5-(2-methoxyethoxy)pyridin-3-yl)pyrrolidin-3-yl)-4-methyl-N-(5-(trifluoromethyl)pyridin-3-yl)benzamide] |
| < 5 nM | < 5 nM | CC(=O)Nc1cncc(N2CC[C@@H](c3cc(C(=O)Nc4cncc(C(F)(F)F)c4)ccc3C)C2)c1 [Example 28, (S)-3-(1-(5-acetamidopyridin-3-yl)pyrrolidin-3-yl)-4-methyl-N-(5-(trifluoromethyl)pyridin-3-yl)benzamide] |
| 5 to 25 nM | < 5 nM | Cc1ccc(C(=O)Nc2cncc(C(F)(F)F)c2)cc1[C@@H]1CCN(c2cncc(OC3CCN(C)CC3)c2)C1 [Example 81, (S)-4-methyl-3-(1-(5-((1-methylpiperidin-4-yl)oxy)pyridin-3-yl)pyrrolidin-3-yl)-N-(5-(trifluoromethyl)pyridin-3-yl)benzamide] |
| < 5 nM | < 5 nM | O=C(Nc1cncc(C(F)(F)F)c1)c1ccc(OC(F)F)c(C2CCN(c3cncnc3)C2)c1 (single isomer, unassigned) [Example 116, 4-(difluoromethoxy)-3-(1-(pyrimidin-5-yl)pyrrolidin-3-yl)-N-(5-(trifluoromethyl)pyridin-3-yl)benzamide] |
| 5 to 25 nM | < 5 nM | Cc1ccc(C(=O)Nc2cncc(C(F)(F)F)c2)cc1[C@@H]1CCN(c2cncc(C(=O)N3CCN(C)CC3)c2)C1 [Example 40, (S)-4-methyl-3-(1-(5-(4-methylpiperazine-1-carbonyl)pyridin-3-yl)pyrrolidin-3-yl)-N-(5-(trifluoromethyl)pyridin-3-yl)benzamide] |
| 5 to 25 nM | 5 to 25 nM | Cc1ccc(C(=O)Nc2cncc(C(F)(F)F)c2)cc1[C@@H]1CCN(c2cnn(C)c2)C1 [Example 88, (S)-4-methyl-3-(1-(1-methyl-1H-pyrazol-4-yl)pyrrolidin-3-yl)-N-(5-(trifluoromethyl)pyridin-3-yl)benzamide] |
| < 5 nM | < 5 nM | Cc1ccc(C(=O)Nc2cncc(C(F)(F)F)c2)cc1[C@@H]1CCN(c2cc(C(N)=O)ncn2)C1 [Example 54, (S)-6-(3-(2-methyl-5-((5-(trifluoromethyl)pyridin-3-yl)carbamoyl)phenyl)pyrrolidin-1-yl)pyrimidine-4-carboxamide] |
| < 5 nM | < 5 nM | Cc1ccc(C(=O)Nc2cncc(C(F)(F)F)c2)cc1[C@@H]1CCN(c2cnc3ccccn23)C1 [Example 71, (S)-3-(1-(imidazo[1,2-a]pyridin-3-yl)pyrrolidin-3-yl)-4-methyl-N-(5-(trifluoromethyl)pyridin-3-yl)benzamide] |
| 5 to 25 nM | < 5 nM | Cc1ccc(C(=O)Nc2cncc(C(F)(F)F)c2)cc1C1CN(c2cncnc2)CC1O (single isomer, unassigned) [Example 122, 3-(4-hydroxy-1-(pyrimidin-5-yl)pyrrolidin-3-yl)-4-methyl-N-(5-(trifluoromethyl)pyridin-3-yl)benzamide] |

Second part, the molecule before the results:

| Structure (SMILES) | Ki (DDR2) | Ki (DDR1) |
| --- | --- | --- |
| Cc1ccc(C(=O)Nc2cc(C(C)(C)C)on2)cc1[C@@H]1CCN(c2cncnc2)C1 [Example 16, (S)-N-(5-(tert-butyl)isoxazol-3-yl)-4-methyl-3-(1-(pyrimidin-5-yl)pyrrolidin-3-yl)benzamide] | < 5 nM | < 5 nM |
| Cc1ccc(C(=O)Nc2cc(C(C)(C)C)nn2C)cc1[C@@H]1CCN(c2cncnc2)C1 [Example 17, (S)-N-(3-(tert-butyl)-1-methyl-1H-pyrazol-5-yl)-4-methyl-3-(1-(pyrimidin-5-yl)pyrrolidin-3-yl)benzamide] | 5 to 25 nM | < 5 nM |
| Cc1ccc(C(=O)Nc2cncc(C(F)(F)F)c2)cc1[C@@H]1CCN(c2cnc3ccc(N4CCN(CC#N)CC4)cn23)C1 [Example 73, (S)-3-(1-(6-(4-(cyanomethyl)piperazin-1-yl)imidazo[1,2-a]pyridin-3-yl)pyrrolidin-3-yl)-4-methyl-N-(5-(trifluoromethyl)pyridin-3-yl)benzamide] | 5 to 25 nM | < 5 nM |
| Cc1ccc(C(=O)Nc2cc(OC(F)(F)F)ccn2)cc1[C@@H]1CCN(c2cncnc2)C1 [Example 12, (S)-4-methyl-3-(1-(pyrimidin-5-yl)pyrrolidin-3-yl)-N-(4-(trifluoro-methoxy)pyridin-2-yl)benzamide] | < 5 nM | < 5 nM |
| Cc1ccc(C(=O)Nc2cncc(C(F)(F)F)c2)cc1[C@@H]1CCN(c2cnn3ccc(C(=O)N4CCOCC4)cc23)C1 [Example 89, (S)-4-methyl-3-(1-(5-(morpholine-4-carbonyl)pyrazolo[1,5-a]pyridin-3-yl)pyrrolidin-3-yl)-N-(5-(trifluoromethyl)pyridin-3-yl)benzamide] | 5 to 25 nM | < 5 nM |
| Cc1ccc(C(=O)Nc2cncc(OC(F)(F)F)c2)cc1[C@@H]1CCN(c2cnn3ccncc23)C1 [Example 98, (S)-4-methyl-3-(1-(pyrazolo[1,5-a]pyrazin-3-yl)pyrrolidin-3-yl)-N-(5-(trifluoromethoxy)pyridin-3-yl)benzamide] | < 5 nM | < 5 nM |
| Cc1ccc(C(=O)Nc2cc(C(C)(C)C)n(C)n2)cc1[C@@H]1CCN(c2ccnc(C(N)=O)c2)C1 [Example 52, (S)-4-(3-(5-((5-(tert-butyl)-1-methyl-1H-pyrazol-3-yl)carbamoyl)-2-methylphenyl)pyrrolidin-1-yl)picolinamide] | 5 to 25 nM | < 5 nM |
| Cc1ccc(C(=O)Nc2cc(C(C)(C)C(F)(F)F)on2)cc1[C@@H]1CCN(c2cncnc2)C1 [Example 14, (S)-4-methyl-3-(1-(pyrimidin-5-yl)pyrrolidin-3-yl)-N-(5-(1,1,1-trifluoro-2-methylpropan-2-yl)isoxazol-3-yl)benzamide] | < 5 nM | < 5 nM |
| CCc1cc(NC(=O)c2ccc(C)c([C@@H]3CCN(c4cnn5cccnc45)C3)c2)no1 [Example 95, (S)-N-(5-ethylisoxazol-3-yl)-4-methyl-3-(1-(pyrazolo[1,5-a]pyrimidin-3-yl)pyrrolidin-3-yl)benzamide] | < 5 nM | < 5 nM |
| Cc1ccc(C(=O)Nc2cncc(C(F)(F)F)c2)cc1[C@@H]1CCN(c2cnc3ccc(N4CCOCC4)nn23)C1 [Example 84, (S)-4-methyl-3-(1-(6-morpholinoimidazo[1,2-b]pyridazin-3-yl)pyrrolidin-3-yl)-N-(5-(trifluoromethyl)pyridin-3-yl)benzamide] | 5 to 25 nM | < 5 nM |
